Measurements taken from article PMC6766977 (International Journal of Cancer, 2019).

Assays:
LNCaP = assay: Cell viability; format: cell-based, human; conditions: read-out: IC50 inhibition of cell viability LNCaP; 1 nM R1881, 6 days; mean ± SD
[1] = system: KuCaP‐1 prostate cancer xenograft; assay: KuCaP-1 patient-derived xenograft in vivo efficacy; design: species or system mice; conditions: for ΔT/ΔC tumor volume: Day 68; for Maximal body weight loss: vehicle group 10%
[2] = system: LAPC‐4 prostate cancer xenograft; assay: LAPC-4 xenograft in vivo efficacy; design: species or system mice; conditions: for ΔT/ΔC tumor volume: Day 56

Structure (SMILES): C[C@@H](Cn1ccc(-c2ccc(C#N)c(Cl)c2)n1)NC(=O)c1cc([C@@H](C)O)[nH]n1 [(S,R)‐darolutamide]
- IC50 (LNCaP): 4.71 µM

Structure (SMILES): C[C@H](O)c1cc(C(=O)N[C@@H](C)Cn2ccc(-c3ccc(C#N)c(Cl)c3)n2)n[nH]1 [(S,S)‐darolutamide]
- IC50 (LNCaP): 5.23 µM

Structure (SMILES): CC(O)(CS(=O)(=O)c1ccc(F)cc1)C(=O)Nc1ccc(C#N)c(C(F)(F)F)c1 (centres unmarked) [Bicalutamide, reference compound]
- IC50 (LNCaP): 3.47 µM

Structure (SMILES): CC(O)c1cc(C(=O)N[C@@H](C)Cn2ccc(-c3ccc(C#N)c(Cl)c3)n2)[nH]n1 (some centres unmarked) [Darolutamide]
- ΔT/ΔC tumor volume ([1]; KuCaP‐1, 40 mg/kg bi‐daily oral): 45%
- Maximal body weight loss ([1]; KuCaP‐1, 40 mg/kg bi‐daily): 8%
- ΔT/ΔC tumor volume ([1]; KuCaP‐1, 100 mg/kg bi‐daily oral): 26%
- Maximal body weight loss ([1]; KuCaP‐1, 100 mg/kg bi‐daily): 6%
- ΔT/ΔC tumor volume ([2]; LAPC‐4, 100 mg/kg bi‐daily oral): 25%
- ΔT/ΔC tumor volume ([2]; LAPC‐4, 200 mg/kg once daily oral): 23%
- Reduction of FKBP5 expression in tumors ([2]; LAPC‐4 tumors, highest treatment doses, 4 hr after final dosing): 50%
- IC50 (LNCaP): 5.26 µM

Structure (SMILES): CNC(=O)c1ccc(N2C(=S)N(c3ccc(C#N)c(C(F)(F)F)c3)C(=O)C2(C)C)cc1F [Enzalutamide, reference compound]
- ΔT/ΔC tumor volume ([1]; KuCaP‐1, 30 mg/kg daily): 70%
- ΔT/ΔC tumor volume ([1]; KuCaP‐1, 100 mg/kg daily): 99%

Structure (SMILES): CC(=O)c1cc(C(=O)N[C@@H](C)Cn2ccc(-c3ccc(C#N)c(Cl)c3)n2)[nH]n1 [Keto‐darolutamide]
- IC50 (LNCaP): 3.21 µM
